Experimental data published in BigSolDB 2.1.

## CC(O)(P(=O)(O)O)P(=O)(O)O.O
In acetic acid, 293.15 K
  solubility (mole fraction): 0.00181
In acetic acid, 298.15 K
  solubility (mole fraction): 0.0019
In acetic acid, 303.15 K
  solubility (mole fraction): 0.00196
In acetic acid, 308.15 K
  solubility (mole fraction): 0.002
In acetic acid, 313.15 K
  solubility (mole fraction): 0.002
In acetic acid, 318.15 K
  solubility (mole fraction): 0.00214
In acetic acid, 323.15 K
  solubility (mole fraction): 0.00225
In acetic acid, 328.15 K
  solubility (mole fraction): 0.00224
In water, 293.15 K
  solubility (mole fraction): 0.174
In water, 298.15 K
  solubility (mole fraction): 0.182
In water, 303.15 K
  solubility (mole fraction): 0.19
In water, 308.15 K
  solubility (mole fraction): 0.198
In water, 313.15 K
  solubility (mole fraction): 0.207
In water, 318.15 K
  solubility (mole fraction): 0.215
In water, 323.15 K
  solubility (mole fraction): 0.225
In water, 328.15 K
  solubility (mole fraction): 0.235
